# Patent US20260053811A1, “METHODS OF TREATING HYPERTENSION IN OBESE SUBJECTS” (Mineralys Therapeutics, Inc., priority 2022, published 2026)
# Marks after values point to notes of the source that are not given here.
# Test system: hypertensive subjects
# Experiment: Seated automated office blood pressure (AOBP) in randomized, placebo-controlled, dose-ranging study
# Type: in vivo, human
# Set-up: Difference from placebo in change in blood pressure: unit not given here
# Conditions: for Modelled (ANCOVA) LSM (SEM) change from baseline, seated AOBP SBP / LSM Δ with PRA Baseline <1 ng/mL/h, seated AOBP SBP (ANCOVA): 100 mg QD Parts 1 & 2
# Procedure: A randomized, double-blinded, placebo-controlled, dose-ranging, multicenter study was conducted to evaluate the effect of orally administered Compound A HBr on blood pressure for the treatment of hypertension in male and female subjects ≥18 years of age.
# The study consists of two parts. For enrollment into Part 1 of the study, a subject's value of plasma renin activity (PRA) must be ≤1 ng/mL/h based on morning measurement. If the value of PRA >1 ng/mL/h based on morning measurement, then subjects may be eligible to enter Part 2 of the study.
# For Part 1, 163 enrolled subjects ≥18 years of age were randomized into 6 equal treatment groups (1:1:1:1:1:1) to 12.5 mg BID, 25 mg BID, 12.5 mg QD, 50 mg QD, 100 mg QD, or placebo. After a review of interim clinical data, the 2 lowest dose levels (12.5 mg QD and 12.5 mg BID) were stopped for future randomization due to a lack of consistent meaningful reduction of blood pressure, but the patients randomized to that point remained in the study through completion. Thus, after the review of interim clinical data, subjects were randomized into 4 equal treatment groups (1:1:1:1) to 25 mg BID, 50 mg QD, 100 mg QD, or placebo.
# For Part 2, 36 enrolled subjects ≥18 years of age were randomized (5:1) to either 100 mg QD Compound A HBr or placebo such that the Compound A HBr treatment group consisted of approximately 30 subjects and the placebo treatment group will consist of approximately 6 subjects.
# Subjects orally administered the assigned study drug (Compound A HBr or placebo) according to the assigned dosing regimen for 8 weeks beginning on Study Day 1. All subjects in Part 1 (regardless of dosing group) received BID dosing to preserve the integrity of the blind; active drug is administered as the morning dose for all QD dose groups. Subjects returned to the research facility or were seen by the clinical investigator or approved home health care professional at the end of Study Weeks 1, 2, 3, 4, 5, 6, 7, and 8 (±2 days) for protocol-defined efficacy and safety assessments and procedures, assessment of adverse events (AEs), and confirmation of compliance with study drug usage. Subjects also completed a telephone visit and blood pressure (BP) check at home approximately 3 days post last dose of study drug. Subjects attended up to 14 full clinic visits, including a pre-Screening visit, a Screening/start of Placebo Run-in visit, a second visit during Placebo Run-in, a clinic visit to initiate the ABPM procedure, a Randomization visit, 8 weekly visits during double-blind treatment, and an end-of-study visit scheduled 4 weeks after the last study treatment for final efficacy and safety assessments.
# An automated oscillometric sphygmomanometer device was used to measure the subjects' systolic and diastolic blood pressure in office after approximately 5 minutes of rest in the seated position.
# The primary endpoint is the change in office-measured (mean of last 2 of 5 unattended measurements using an automated oscillometric sphygmomanometer device after approximately 5 minutes of rest in the seated position) systolic blood pressure (SBP) from baseline to the end of Study Week 8.
# Secondary endpoints of this study were: • (a) Change in 24-hour ambulatory blood pressure monitoring (ABPM) parameters (systolic and diastolic) from baseline to the end of Study Week 7. • (b) Change in office-measured SBP from baseline to the end of Study Weeks 1, 2, 3, 4, 5, 6, and 7. • (c) Change in office-measured diastolic blood pressure (DBP) from baseline to the end of Study Weeks 1, 2, 3, 4, 5, 6, 7, and 8. • (d) Proportion of subjects who achieve office-measured BP of ≤130/80 mm Hg by the end of Study Week 8.
# [1] = 100 mg QD Part 2, Week 8, Parts 1 & 2 model, FAS
# [2] = PRA Baseline >=1 ng/mL/h, Week 4, FAS
# [3] = PRA Baseline >=1 ng/mL/h, Week 8, FAS
compound,measurement,setting,value
CC(=O)N[C@H]1CC[C@H](NC(=O)CN2CCN(c3nncc(-c4ccc(C)cc4)n3)CC2)CC1 [Compound A HBr],"LSM Δ with Placebo, change from baseline in seated AOBP SBP (MMRM)","100 mg QD Part 2 (vs 100 mg QD Part 1 per text), Week 8, FAS",0.74 mmHg
same,"LSM Δ with 100 mg QD Part 1, seated AOBP DBP (MMRM)","100 mg QD Part 2, Week 4, FAS",−0.43 mmHg
same,"Modelled (MMRM) LSM (SEM) change from baseline, seated AOBP DBP","100 mg QD Part 2, Week 4, Parts 1 & 2 model, FAS",−6.30 (1.44) mmHg
same,"Modelled (MMRM) LSM (SEM) change from baseline, seated AOBP DBP",[1],−5.55 (1.42) mmHg
same,"Modelled (MMRM) LSM (SEM) change from baseline, seated AOBP SBP",[1],−11.35 (2.48) mmHg
same,"Modelled (ANCOVA) LSM (SEM) change from baseline, seated AOBP SBP","PRA Baseline <1 ng/mL/h, Week 4, FAS",−15.42 (3.12) mmHg
same,"Modelled (ANCOVA) LSM (SEM) change from baseline, seated AOBP SBP","PRA Baseline <1 ng/mL/h, Week 8, FAS",−11.27 (3.13) mmHg
same,"LSM Δ with PRA Baseline <1 ng/mL/h, seated AOBP SBP (ANCOVA)",[2],0.18 mmHg
same,"Modelled (ANCOVA) LSM (SEM) change from baseline, seated AOBP SBP",[2],−15.24 (2.75) mmHg
same,"LSM Δ with PRA Baseline <1 ng/mL/h, seated AOBP SBP (ANCOVA)",[3],−2.07 mmHg
same,"Modelled (ANCOVA) LSM (SEM) change from baseline, seated AOBP SBP",[3],−13.34 (2.52) mmHg
same,Difference from placebo in change in blood pressure,"100 mg QD, BMI 25-30",−2.6
same,Difference from placebo in change in blood pressure,"100 mg QD, BMI >30",−13.2*
same,Mean placebo-adjusted reduction in AOBP SBP,"100 mg QD, Part 1, Week 8",7.81 mmHg
same,Proportion of subjects with AOBP ≤130/80 mmHg,"100 mg QD, Part 1, Week 8",30%
same,Proportion of subjects with AOBP ≤130/80 mmHg,"100 mg QD, Part 2, Week 8",54.8%
same,"Mean reduction in AOBP systolic BP, placebo-corrected, Full-analysis set","100 mg QD, Part-1 and Part-2 (interim) combined, N=58 active",−9.9 mmHg
same,Difference from placebo in change in blood pressure,"100 mg QD, Thiazide No",−3.3
same,Difference from placebo in change in blood pressure,"100 mg QD, Thiazide Yes",−11.4*
same,"Seated AOBP DBP change from baseline (CFB), Mean (SD)","100 mg QD, Week 1, Part 1, FAS",0.98 (8.29) mmHg
same,"Seated AOBP DBP, Mean (SD)","100 mg QD, Week 1, Part 1, FAS",79.70 (11.07) mmHg
same,"Seated AOBP SBP change from baseline (CFB), Mean (SD)","100 mg QD, Week 1, Part 1, FAS",0.06 (12.66) mmHg
same,"Seated AOBP SBP, Mean (SD)","100 mg QD, Week 1, Part 1, FAS",144.41 (14.54) mmHg
same,"Seated AOBP DBP change from baseline (CFB), Mean","100 mg QD, Week 1, Part 2, FAS",−5.85 mmHg
same,"Seated AOBP DBP, Mean","100 mg QD, Week 1, Part 2, FAS",72.19 mmHg
same,"Seated AOBP SBP change from baseline (CFB), Mean","100 mg QD, Week 1, Part 2, FAS",−11.35 mmHg
same,"Seated AOBP SBP, Mean","100 mg QD, Week 1, Part 2, FAS",129.00 mmHg
same,"Seated AOBP DBP change from baseline (CFB), Mean (SD)","100 mg QD, Week 2, Part 1, FAS",−2.14 (9.60) mmHg
same,"Seated AOBP DBP, Mean (SD)","100 mg QD, Week 2, Part 1, FAS",76.36 (11.90) mmHg
same,"Seated AOBP SBP change from baseline (CFB), Mean (SD)","100 mg QD, Week 2, Part 1, FAS",−5.64 (16.38) mmHg
same,"Seated AOBP SBP, Mean (SD)","100 mg QD, Week 2, Part 1, FAS",139.04 (18.22) mmHg
same,"Seated AOBP DBP change from baseline (CFB), Mean","100 mg QD, Week 2, Part 2, FAS",−5.13 mmHg
same,"Seated AOBP DBP, Mean","100 mg QD, Week 2, Part 2, FAS",73.10 mmHg
same,"Seated AOBP SBP change from baseline (CFB), Mean","100 mg QD, Week 2, Part 2, FAS",−8.80 mmHg
same,"Seated AOBP SBP, Mean","100 mg QD, Week 2, Part 2, FAS",131.33 mmHg
same,"Seated AOBP DBP change from baseline (CFB), Mean (SD)","100 mg QD, Week 3, Part 1, FAS",−5.48 (9.36) mmHg
same,"Seated AOBP DBP, Mean (SD)","100 mg QD, Week 3, Part 1, FAS",72.84 (10.83) mmHg
same,"Seated AOBP SBP change from baseline (CFB), Mean (SD)","100 mg QD, Week 3, Part 1, FAS",−9.20 (11.37) mmHg
same,"Seated AOBP SBP, Mean (SD)","100 mg QD, Week 3, Part 1, FAS",136.56 (14.68) mmHg
same,"Seated AOBP DBP change from baseline (CFB), Mean","100 mg QD, Week 3, Part 2, FAS",−4.76 mmHg
same,"Seated AOBP DBP, Mean","100 mg QD, Week 3, Part 2, FAS",73.72 mmHg
same,"Seated AOBP SBP change from baseline (CFB), Mean","100 mg QD, Week 3, Part 2, FAS",−8.76 mmHg
same,"Seated AOBP SBP, Mean","100 mg QD, Week 3, Part 2, FAS",131.52 mmHg
same,"LSM Δ with Placebo, seated AOBP DBP (MMRM)","100 mg QD, Week 4, Part 1, FAS",−6.42 mmHg
same,"Modelled (MMRM) LSM (SEM) change from baseline, seated AOBP DBP","100 mg QD, Week 4, Part 1, FAS",−6.96 (1.48) mmHg
